Source: US5932580A, “PDGF receptor kinase inhibitory compounds their preparation and compositions” (priority 1997, dated 1999)
Read-outs that look alike come from different tables or passages of the source.

Experiments:
[1] = molecular target: T1, PDGF β-receptor (Sus scrofa, UniProt F1RL75); experiment: PDGF induced PDGFR autophosphorylation in intact SMC cells; type: cell-based; conditions: porcine arterial SMC
T1 construct: PDGF-BB stimulated; immunoprecipitated with PDGF beta-receptor specific antiserum R3
T1 sequence (F1RL75 109-1181): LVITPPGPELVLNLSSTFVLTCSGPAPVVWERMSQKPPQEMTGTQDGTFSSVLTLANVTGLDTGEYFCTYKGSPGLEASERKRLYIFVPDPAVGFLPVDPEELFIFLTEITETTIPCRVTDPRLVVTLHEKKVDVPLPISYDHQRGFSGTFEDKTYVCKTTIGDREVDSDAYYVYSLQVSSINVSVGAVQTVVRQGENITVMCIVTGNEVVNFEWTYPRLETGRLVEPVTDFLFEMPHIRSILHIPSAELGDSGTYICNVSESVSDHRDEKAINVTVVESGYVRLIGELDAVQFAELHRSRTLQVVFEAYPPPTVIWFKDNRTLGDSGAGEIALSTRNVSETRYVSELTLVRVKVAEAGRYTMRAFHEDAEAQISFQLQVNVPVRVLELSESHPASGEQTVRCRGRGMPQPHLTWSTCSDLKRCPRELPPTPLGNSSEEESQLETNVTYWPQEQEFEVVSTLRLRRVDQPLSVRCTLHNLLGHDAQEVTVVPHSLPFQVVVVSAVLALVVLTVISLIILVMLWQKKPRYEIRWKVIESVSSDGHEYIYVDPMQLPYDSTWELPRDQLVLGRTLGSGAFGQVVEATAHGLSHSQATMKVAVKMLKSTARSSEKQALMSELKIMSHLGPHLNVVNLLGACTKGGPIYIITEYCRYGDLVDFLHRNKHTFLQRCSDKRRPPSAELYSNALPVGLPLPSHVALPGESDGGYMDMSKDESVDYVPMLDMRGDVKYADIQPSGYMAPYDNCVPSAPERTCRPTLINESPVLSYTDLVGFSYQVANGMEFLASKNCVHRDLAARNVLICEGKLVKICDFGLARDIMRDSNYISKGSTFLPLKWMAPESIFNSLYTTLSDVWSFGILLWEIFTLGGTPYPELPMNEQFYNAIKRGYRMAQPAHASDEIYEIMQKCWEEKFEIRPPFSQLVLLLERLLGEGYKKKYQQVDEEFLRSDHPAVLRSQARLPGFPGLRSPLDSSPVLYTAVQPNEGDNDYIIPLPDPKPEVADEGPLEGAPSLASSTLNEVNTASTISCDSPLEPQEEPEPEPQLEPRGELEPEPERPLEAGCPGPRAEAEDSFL
Experimental: Effect of tyrphostins on PDGF induced PDGFR autophosphorylation in intact SMC cells: Subconfluent porcine arterial smooth muscle cells, cultivated in Dulbecco's modified Eagle's medium (DMEM) supplemented with 15% fetal calf serum (FCS), were synchronized for 20 hours in a medium containing 2% FCS. […] After stimulation, the cells were solubilized in Nonidet P-40 (1%) containing lysis buffer.
The analysis of PDGF p-receptor phosphorylation was performed as follows. Cell lysates were subjected to immunoprecipitation using the PDGF β-receptor specific antiserum R3 [5]. The percipitates were subjected to polyacrylamide (7.5%) gel electrophoresis in presence of sodium deducyl sulfate (SDS-PAGE) and were thereafter blotted onto a nitrocellulose membrane (Hybond C-EXTRA, Amersham). Phosphorylated proteins were detected by immunoblotting using the horseradish-peroxidase conjugated phosphotyrosine antibody RC20H (Transduction Laboratories), followed by chemoluminescence-based detection (ECL, Amersham) and autoradiography.
Detection of receptor proteins was performed as follows. Cell lysates were subjected to immunoprecipitation using the PDGF β-receptor specific antiserum R3 [5], as described above, and the percipitates washed three times and thereafter subjected to SDS-PAGE (7.5%) and blotting onto a nitrocellulose membrane (Hybond C-EXTRA, Amersham). Receptor proteins were detected by immunoblotting using the horseradish-peroxidase conjugated donkey anti-rabbit antibody (Amersham), followed by chemoluminescence-based detection (ECL, Amersham) and autoradiography.

[2] = tested on: PDGFR; experiment: PDGFR autophosphorylation, isolated membranes or intact Swiss 3T3 cells; type: biochemical; conditions: read-out: IC50 (50% inhibition of phosphorylation) PDGFR
Experimental: Assay of receptor autophosphorylation in intact 3T3 cells: Confluent Swiss 3T3 cells in 24-well plates (Nunc) were incubated for 20-24 hours in serum-free DMEM. Subsequently, tyrphostins were added at concentrations ranging from 0 to 100 μM (final DMSO concentration, 0.5%) and the incubation was continued for 6-8 hours. The cells were then stimulated with 100 ng/ml PDGF-BB for 5 min at room temperature or 600 ng/ml EGF for 2.5 min on ice. The growth factor treatment was terminated by washing twice with ice-cold PBS and the cells were scraped off the wells in 60 μl lysis buffer containing 20 mM Hepes (pH 7.4), 150 mM NaCl, 1% Triton X-100, 10 mM sodium pyrophosphate, 50 mM NaF, 2 mM sodium-o-vanadate, 20 μm zinc acetate, 10 nM EDTA, 2 mM [ethylenebis(oxyethilenenitrilo)] tetraacetic acid, 1 mM phenylmethylsulfonyl fluoride, and 5 μg/ml leupeptin.
The cell lysates were clarified by centrifugation (cooled microfuge, 17,000 rpm, 15 min) and analyzed by SDS-PAGE (6.5% gels) and immunoblotting with anti-phosphotyrosine antibodies (either PY 20, ICN, and subsequently a peroxidase-coupled secondary antibody, or RC20-peroxidase conjugate, Affinity, Nottingham, United Kingdom). The blots were developed with a chemiluminescence detection system (Western Light, Tropix, or ECL, Amersham). In some experiments PDGF receptors were immunoprecipitated with PDGF-R3 or DIG-1 antibodies as described prior to the analysis by immunoblotting with anti-phosphotyrosine antibodies.
Membrane autophosphorylation assays: Membranes were prepared from confluent cultures of Swiss 3T3 cells as described. For measuring receptor autophosphorylation, 10 μg membrane protein per assay were incubated for 20 min on ice in the presence of 1.2 μg/ml EGF or 2 μg/ml PDGF, or both; 50 mM Hepes (pH 7.5); and 3 mm MnCl2 (final concentrations) in a volume of 45 μl. […] For quantification of radioactivity in electrophoresis gels, a Phospho-Imager (Molecular Dynamics, Fuji, or Bio-Rad) was used according to the instructions of the manufacturers. […]

[3] = molecular target: T2, SRC kinase (Gallus gallus, UniProt P00523, Y527F); experiment: Src kinase activity assay (immunoprecipitate from src-transformed NIH 3T3 cells); type: biochemical, chicken
T2 construct: expressed in transfected cells; host or cells: NIH 3T3, stably transfected (gift of S. Courtneidge, Heidelberg)
Experimental: Src kinase activity assay: src-transformed NIH 3T3 cells were grown in 24-well plates to confluency; rinsed twice with a solution containing 20 mM Tris, 0.1 mM sodium-o-vanadate, and 150 mM NaCl (pH 7.5); and lysed in 100 μl/well of lysis buffer containing 20 mM Tris (pH 8.0), 150 mM NaCl, 1% Nonidet P-40, 2.5 mM EDTA, 10 mM NaF, 1% trasylol, and 20 μm leupeptin. The lysate was clarified by centrifugation and subjected to immunoprecipitation with the anti-Src monoclonal antibody MAb 327 (Oncogene Science; 0.5 μg antibody/80 μg protein) for 1 hour at 4° C. Then, goat anti-mouse IgG (Sigma; 0.2 μg per 0.5 μg monoclonal antibody 327) was added and incubation was continued for 30 mi followed by another 40 min of incubation with 10 μl of protein A-Sepharose Cl-4B (Pharmacia). The immunoprecipitates were washed five times with the lysis buffer and twice with kinase buffer containing 40 mM Hepes (pH 7.4), 0.5 mM dithiothreitol, 5 mM MnCl2, and 0.1 mM sodium-o-vanadate. The immunoprecipitates were suspended in kinase buffer and aliquots corresponding to 40 μg of cell lysate protein were preincubated with or without tyrphostin for 15 min at 30° C. Then, the kinase reaction was performed in the presence of 2 μg of acid-treated enolase and 10 μCi of [γ-^32 P]ATP (2 μM) in a final volume of 30 μl. The reaction was terminated by addition of SDS-PAGE sample buffer (6% SDS, 30% β-mercaptoetlhanol, 40% glycerol, and 0.5 mg/ml bromophenol blue) and the incorporation of radioactivity in the enolase was analyzed by SDS-PAGE and autoradiography as well as Phosphor-Imager quantification.

[4] = molecular target: T3, EGFR (Mus musculus, UniProt Q01279); experiment: EGFR autophosphorylation, isolated membranes or intact Swiss 3T3 cells; type: biochemical; conditions: read-out: IC50 (50% inhibition of phosphorylation) EGFR
T3 construct: Membranes were prepared from confluent cultures of Swiss 3T3 cells; endogenous in cells; host or cells: Swiss 3T3 (obtained from E. Rozengurt, London)
T3 sequence (Q01279 25-1210): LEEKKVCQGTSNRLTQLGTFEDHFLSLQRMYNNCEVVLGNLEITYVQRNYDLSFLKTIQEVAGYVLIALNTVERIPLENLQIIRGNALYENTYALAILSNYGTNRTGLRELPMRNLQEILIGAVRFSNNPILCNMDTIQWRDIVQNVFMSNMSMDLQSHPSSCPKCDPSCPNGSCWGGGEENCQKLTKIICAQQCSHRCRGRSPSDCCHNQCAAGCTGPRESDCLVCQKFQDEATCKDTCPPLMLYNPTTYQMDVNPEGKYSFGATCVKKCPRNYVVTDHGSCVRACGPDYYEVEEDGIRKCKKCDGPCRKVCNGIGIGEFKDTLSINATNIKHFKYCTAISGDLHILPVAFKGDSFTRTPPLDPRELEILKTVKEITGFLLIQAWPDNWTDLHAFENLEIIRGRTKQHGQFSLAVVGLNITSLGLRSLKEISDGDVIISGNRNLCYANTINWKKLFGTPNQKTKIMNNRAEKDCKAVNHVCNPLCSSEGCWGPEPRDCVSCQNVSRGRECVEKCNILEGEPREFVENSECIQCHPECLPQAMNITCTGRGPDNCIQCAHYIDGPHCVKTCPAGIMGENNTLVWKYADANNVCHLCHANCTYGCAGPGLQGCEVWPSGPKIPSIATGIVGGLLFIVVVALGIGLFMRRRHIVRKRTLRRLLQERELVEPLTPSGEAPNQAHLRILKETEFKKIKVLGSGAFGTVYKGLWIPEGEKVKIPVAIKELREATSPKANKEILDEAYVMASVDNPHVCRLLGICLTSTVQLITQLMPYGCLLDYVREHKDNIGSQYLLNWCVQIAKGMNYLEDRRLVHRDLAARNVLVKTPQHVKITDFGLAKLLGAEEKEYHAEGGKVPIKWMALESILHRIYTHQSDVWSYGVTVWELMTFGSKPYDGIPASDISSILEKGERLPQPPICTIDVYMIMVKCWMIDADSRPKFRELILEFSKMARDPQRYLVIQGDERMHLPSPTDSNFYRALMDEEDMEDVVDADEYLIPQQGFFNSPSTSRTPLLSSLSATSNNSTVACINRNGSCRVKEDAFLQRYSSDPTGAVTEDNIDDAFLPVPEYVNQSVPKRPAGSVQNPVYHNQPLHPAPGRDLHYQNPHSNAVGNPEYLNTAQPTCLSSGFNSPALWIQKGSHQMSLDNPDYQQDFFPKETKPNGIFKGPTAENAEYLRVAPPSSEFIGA
Experimental: Membrane autophosphorylation assays: Membranes were prepared from confluent cultures of Swiss 3T3 cells as described [22]. For measuring receptor autophosphorylation, 10 μg membrane protein per assay were incubated for 20 min on ice in the presence of 1.2 μg/ml EGF or 2 μg/ml PDGF, or both; 50 mM Hepes (pH 7.5); and 3 mm MnCl2 (final concentrations) in a volume of 45 μl. In order to test the effects and determine the IC50 value of various tyrphostins, these were added in a volume of 0.5 μl (in DMSO; final concentration, 0.5%) 15 min before addition of the growth factors, in a range of concentrations. […] For quantification of radioactivity in electrophoresis gels, a Phospho-Imager (Molecular Dynamics, Fuji, or Bio-Rad) was used according to the instructions of the manufacturers. […]

[5] = tested on: porcine aortic smooth muscle cells (SMC); experiment: Inhibition of cell proliferation and recovery, porcine SMC; type: cell-based; conditions: for inhibition at 10 µM: Sus scrofa
Experimental: Smooth muscle cells (SMC) were obtained under aseptic conditions from porcine abdominal aortas, and human internal mammary arteries (IMA). Specimens from the operating room were transferred on ice to the tissue culture room. Each artery was cut open and the endothelial surface mechanically scraped. […] The tissue fragments were then placed in an incubator at 37° C. under 9% CO2 atmosphere until SMC outgrowth was detected (typically within 3-7 days). […] For experiments testing the effect of tyrphostins on growth inhibition and recovery (see below), SMC from passages 1-3 were replated in 15 mm wells pretreated with 3 μg/cm^2 fibronectin (Biological Industries, Kibbutz Beit Haemek, Israel) at 15,000 cells/well.
Inhibition of cell proliferation and recovery: Monolayer cell growth inhibition and recovery experiments were repeated 3 or 4 times. Each experiment was performed in triplicate. […] Cultures were treated with a tyrphostin (10 μM) dissolved in 0.1% DMSO on days 1 and 3. On day 6, cultures were washed and the cells allowed to recover. Typically cells were counted on days 3 and 5 for inhibition, and on days 7, 10 and 15 for recovery, other schedules were also employed as reported below.

SMILES: Cc1cc2ncc(-c3cccs3)nc2cc1C [AG1990]
- level of PDGF β-receptor protein present in the cells [1]: without affecting the level
- inhibition of PDGF-BB induced PDGF β-receptor tyrosine-phosphorylation ([1]; tyrphostin 10 μM, 60 min preincubation, PDGF-BB 100 ng/ml): completely inhibited
- IC50 [2]: 1 µM
- IC50 [3]: 20 µM
- IC50 [4]: > 30 µM
- inhibition at 10 µM ([5]; 120 h, by day 5 (day given for AG1295 and AG1992), read-out: reduction in SMC count / inhibition of SMC growth over control): 50%
- inhibition at 10 µM ([5]; Table 2, read-out: mean reduction in SMC count compared to control cells (maximal inhibition in SMC growth)): 50%
- reversibility of the inhibitory effect / recovery of SMC growth after washout ([5]; porcine SMC, cultures washed, cells allowed to recover): completely reversible
